Data reported in the NIST ThermoML archive (doi:10.1021/je501041r).

Test: xn = mol fraction of the nth substance listed
Conditions: 101 kPa, Liquid; for viscosity: Capillary tube (Ostwald / Ubbelohde) method; for mass density: Vibrating tube method

CCCCCCO [hexan-1-ol] + CC(C)CC(C)(C)C
Conditions | mass density [kg/m3] | viscosity [mPa·s]
298.15 K, x2 = 0 | 815.3 | 4.605
298.15 K, x2 = 0.1001 | 799.99 | 3.428
298.15 K, x2 = 0.2 | 785 | 2.565
298.15 K, x2 = 0.3001 | 770.65 | 1.933
298.15 K, x2 = 0.4 | 756.92 | 1.452
298.15 K, x2 = 0.5 | 743.89 | 1.124
298.15 K, x2 = 0.6001 | 731.33 | 0.899
298.15 K, x2 = 0.7001 | 719.63 | 0.737
298.15 K, x2 = 0.7997 | 708.41 | 0.621
298.15 K, x2 = 0.8998 | 697.73 | 0.536
298.15 K, x2 = 0.9199 | 695.61 | –
298.15 K, x2 = 0.9396 | 693.66 | –
298.15 K, x2 = 0.9595 | 691.69 | –
303.15 K, x2 = 0 | 811.71 | 3.944
303.15 K, x2 = 0.1001 | 796.32 | 2.958
303.15 K, x2 = 0.2 | 781.24 | 2.236
303.15 K, x2 = 0.3001 | 766.82 | 1.728
303.15 K, x2 = 0.4 | 753.03 | 1.306
303.15 K, x2 = 0.5 | 739.93 | 1.051
303.15 K, x2 = 0.6001 | 727.33 | 0.829
303.15 K, x2 = 0.7001 | 715.58 | 0.688
303.15 K, x2 = 0.7997 | 704.3 | 0.582
303.15 K, x2 = 0.8998 | 693.58 | 0.504
303.15 K, x2 = 0.9199 | 691.45 | –
303.15 K, x2 = 0.9396 | 689.52 | –
303.15 K, x2 = 0.9595 | 687.54 | –
308.15 K, x2 = 0 | 808.09 | 3.414
308.15 K, x2 = 0.1001 | 792.61 | 2.592
308.15 K, x2 = 0.2 | 777.46 | 1.965
308.15 K, x2 = 0.3001 | 762.96 | 1.536
308.15 K, x2 = 0.4 | 749.11 | 1.18
308.15 K, x2 = 0.5 | 735.95 | 0.941
308.15 K, x2 = 0.6001 | 723.29 | 0.775
308.15 K, x2 = 0.7001 | 711.48 | 0.643
308.15 K, x2 = 0.7997 | 700.16 | 0.546
308.15 K, x2 = 0.8998 | 689.39 | 0.476
308.15 K, x2 = 0.9199 | 687.26 | –
308.15 K, x2 = 0.9396 | 685.32 | –
308.15 K, x2 = 0.9595 | 683.35 | –
313.15 K, x2 = 0 | 804.43 | 2.96
313.15 K, x2 = 0.1001 | 788.88 | 2.275
313.15 K, x2 = 0.2 | 773.65 | 1.745
313.15 K, x2 = 0.3001 | 759.07 | 1.361
313.15 K, x2 = 0.4 | 745.15 | 1.071
313.15 K, x2 = 0.5 | 731.93 | 0.861
313.15 K, x2 = 0.6001 | 719.21 | 0.721
313.15 K, x2 = 0.7001 | 707.36 | 0.596
313.15 K, x2 = 0.7997 | 695.98 | 0.512
313.15 K, x2 = 0.8998 | 685.18 | 0.449
313.15 K, x2 = 0.9199 | 683.03 | –
313.15 K, x2 = 0.9396 | 681.09 | –
313.15 K, x2 = 0.9595 | 679.12 | –
318.15 K, x2 = 0 | 800.75 | 2.581
318.15 K, x2 = 0.1001 | 785.1 | 1.997
318.15 K, x2 = 0.2 | 769.8 | 1.577
318.15 K, x2 = 0.3001 | 755.15 | 1.23
318.15 K, x2 = 0.4 | 741.15 | 0.976
318.15 K, x2 = 0.5 | 727.88 | 0.807
318.15 K, x2 = 0.6001 | 715.1 | 0.658
318.15 K, x2 = 0.7001 | 703.19 | 0.559
318.15 K, x2 = 0.7997 | 691.77 | 0.483
318.15 K, x2 = 0.8998 | 680.92 | 0.424
318.15 K, x2 = 0.9199 | 678.78 | –
318.15 K, x2 = 0.9396 | 676.83 | –
318.15 K, x2 = 0.9595 | 674.86 | –
323.15 K, x2 = 0 | 797.02 | 2.251
323.15 K, x2 = 0.1001 | 781.29 | 1.778
323.15 K, x2 = 0.2 | 765.91 | 1.391
323.15 K, x2 = 0.3001 | 751.18 | 1.113
323.15 K, x2 = 0.4 | 737.12 | 0.894
323.15 K, x2 = 0.5 | 723.78 | 0.747
323.15 K, x2 = 0.6001 | 710.95 | 0.623
323.15 K, x2 = 0.7001 | 698.99 | 0.523
323.15 K, x2 = 0.7997 | 687.52 | 0.455
323.15 K, x2 = 0.8998 | 676.63 | 0.402
323.15 K, x2 = 0.9199 | 674.48 | –
323.15 K, x2 = 0.9396 | 672.54 | –
323.15 K, x2 = 0.9595 | 670.56 | –
